We go through two compounds from PMC3480206 (Future microbiology, 2012).

In brackets after ≈: the same amount, converted by molar mass.

In one test the test system is EMB-resistant Mtb. Particulars: cited from earlier work.
Test [1] deals with Mycobacterium tuberculosis. The test can be described thus: Alamar MIC. Type of test: cell-based. Particulars: TAACF.
In test [2] the test system is Mycobacterium tuberculosis XDR strains. The test can be described thus: microbe, parasite or virus in culture. Type of test: cell-based.

On to `CC[C@@H](CO)NCCN[C@@H](CC)CO` [EMB, ethambutol], for which, in the test with EMB-resistant Mtb, the “MIC on EMB-resistant Mtb” value was 184 µg/mL (≈ 901 µM).
For `CC(C)=CCC/C(C)=C/CNCCNC1C2CC3CC(C2)CC1C3` (centres unmarked) [SQ109, N-geranyl-N′-(2-adamantyl)ethane-1,2-diamine], the MIC in test [1] (ATCC35822, INH-resistant, ATCC 35822, Alamar) is 0.78 µg/mL (≈ 2.36 µM); in test [1] (ATCC35838, RIF-resistant, ATCC 35838, Alamar), at most 0.39 µg/mL; in test [1] (CIP-resistant, Alamar), at most 0.39 µg/mL; in test [1] (EMB-resistant, Alamar), 0.78 µg/mL (≈ 2.36 µM); in test [1] (KAN-resistant, Alamar), 0.78 µg/mL (≈ 2.36 µM); in test [2] (Mycobacterium tuberculosis), 0.2 µg/mL (≈ 0.605 µM). Also, in test [2] (XDR, also EMB-resistant, strain 587W1, Microbroth), the MIC came to 0.20 µg/mL (≈ 0.605 µM).
